How the values were obtained:
4B8^ΔN cells = assay: OCR, ECAR, FPT intensity and MMP in 4B8 cells complemented with NTD-truncated MFSD7C; format: cell-based, human; conditions: heme 1 hour
Experimental: FIGS. 4A-4H show NTD of MFSD7C mediates heme effect on mitochondrial respiration. FIGS. 4A-4C show comparison of basal OCR (FIG. 4A), maximal OCR (FIG. 4B) and ECAR (FIG. 4C) of THP-1, 4B8, and 4B8^FL and 4B8^ΔN cells treated with vehicle or heme for 1 hour (n=18 separate experiments). […] Cells were incubated with FPT for 6 hrs, washed and reseeded in poly-lysine coated glass bottom dishes. After cells attached to the glass, medium containing 40 μM heme was added. Cells in the same field were imaged immediately and again 1 hour later. Relative FPT fluorescent intensities, normalized to THP-1, from three experiments are shown. (n=3 independent experiments). […] THP-1, 4B8, 4B8^FL and 4B8^ΔN cells were treated with vehicle or heme for 1 hour and MMP was measured by using JC-10 Mitochondrial Membrane Potential Assay Kit followed by flow cytometry. […] Shown are representative Western blotting data (FIG. 4G) and quantification of band intensities from n=3 independent experiments (FIG. 4H). P-values were calculated using two-way ANOVA (*p<0.05, **p<0.01, ***p<0.005). […]
Measurements of OCR, ECAR, and MMP. Oxygen consumption rate (OCR) and extracellular acidification rate (ECAR) were measured using XF96e Seahorse Extracellular Flux Analyzer per manufacturer's protocol. […]

HP motif peptide = molecular target: T1, HP motif peptide (Homo sapiens, UniProt Q9UPI3); assay: Isothermal titration calorimetry of HP motif peptide binding to heme (one-site model)
T1 construct: a synthetic 14-amino acid HP motif peptide; made in house; host or cells: chemical solid-phase synthesis (Koch Institute Biopolymers & Proteomics Core)

C=CC1=C(C)c2cc3[n-]c(cc4[n-]c(cc5nc(cc1n2)C(C)=C5C=C)c(C)c4CCC(=O)O)c(CCC(=O)O)c3C.[Fe+2] [heme]
response to heme (OCR, ECAR, FPT intensity, MMP) (4B8^ΔN cells): little to no response to heme
binding stoichiometry heme : HP motif peptide (HP motif peptide): one heme bound to one HP motif peptide

— US20230313199A1, “TARGET FOR MODULATING BODY MASS” (Massachusetts Institute of Technology, priority 2020, published 2023)
